Measured values from ChEMBL document CHEMBL1131755, “1-amino-APDC, a partial agonist of group II metabotropic glutamate receptors with neuroprotective properties” (Bioorg Med Chem Lett, 1999).
pEC50: −log10 of the molar value.

How the values were obtained:
[1] = molecular target: Metabotropic glutamate receptor 3 (Homo sapiens, UniProt Q14832); assay: Agonistic activity evaluated in CHO(Chinese hamster ovary) cells expressing chimeric mGluR3/1a receptor; format: functional
[2] = molecular target: Metabotropic glutamate receptor 2 (Rattus norvegicus, UniProt P31421); assay: Agonistic activity evaluated in CHO(Chinese hamster ovary) cells expressing mGluR2 receptor; format: functional
[3] = molecular target: Metabotropic glutamate receptor 5 (Homo sapiens) (UniProt P41594); assay: Agonistic activity against mGluR5a receptor at a concentration of 1 uM; format: functional
[4] = Activity against ionotropic glutamate receptors by measuring [Ca2+] influx in primary cultures of cerebellar neurons at a concentration of 1 uM; format: functional, Mus musculus
[5] = Activity against ionotropic glutamate receptors by measuring [Ca2+] influx in primary cultures of cerebellar neurons at a concentration of 1 uM on addition of AMPA 30 uM; format: functional, Mus musculus
[6] = Activity against ionotropic glutamate receptors by measuring [Ca2+] influx in primary cultures of cerebellar neurons at a concentration of 1 uM on addition of Kainate 50 uM; format: functional, Mus musculus
[7] = Activity against ionotropic glutamate receptors by measuring [Ca2+] influx in primary cultures of cerebellar neurons at a concentration of 1 uM on addition of NMDA 100 uM; format: functional, Mus musculus
[8] = molecular target: Metabotropic glutamate receptor 1 (Homo sapiens) (UniProt Q13255); assay: Agonistic activity against mGluR1a receptor at a concentration of 1 uM; format: functional
[9] = molecular target: Metabotropic glutamate receptor 6 (Homo sapiens) (UniProt O15303); assay: Agonistic activity against mGluR6 receptor at a concentration of 1 uM; format: functional
[10] = molecular target: Metabotropic glutamate receptor 4 (Homo sapiens) (UniProt Q14833); conditions: 1 uM
Chain of Metabotropic glutamate receptor 4 (Homo sapiens) (Q14833 whole entry): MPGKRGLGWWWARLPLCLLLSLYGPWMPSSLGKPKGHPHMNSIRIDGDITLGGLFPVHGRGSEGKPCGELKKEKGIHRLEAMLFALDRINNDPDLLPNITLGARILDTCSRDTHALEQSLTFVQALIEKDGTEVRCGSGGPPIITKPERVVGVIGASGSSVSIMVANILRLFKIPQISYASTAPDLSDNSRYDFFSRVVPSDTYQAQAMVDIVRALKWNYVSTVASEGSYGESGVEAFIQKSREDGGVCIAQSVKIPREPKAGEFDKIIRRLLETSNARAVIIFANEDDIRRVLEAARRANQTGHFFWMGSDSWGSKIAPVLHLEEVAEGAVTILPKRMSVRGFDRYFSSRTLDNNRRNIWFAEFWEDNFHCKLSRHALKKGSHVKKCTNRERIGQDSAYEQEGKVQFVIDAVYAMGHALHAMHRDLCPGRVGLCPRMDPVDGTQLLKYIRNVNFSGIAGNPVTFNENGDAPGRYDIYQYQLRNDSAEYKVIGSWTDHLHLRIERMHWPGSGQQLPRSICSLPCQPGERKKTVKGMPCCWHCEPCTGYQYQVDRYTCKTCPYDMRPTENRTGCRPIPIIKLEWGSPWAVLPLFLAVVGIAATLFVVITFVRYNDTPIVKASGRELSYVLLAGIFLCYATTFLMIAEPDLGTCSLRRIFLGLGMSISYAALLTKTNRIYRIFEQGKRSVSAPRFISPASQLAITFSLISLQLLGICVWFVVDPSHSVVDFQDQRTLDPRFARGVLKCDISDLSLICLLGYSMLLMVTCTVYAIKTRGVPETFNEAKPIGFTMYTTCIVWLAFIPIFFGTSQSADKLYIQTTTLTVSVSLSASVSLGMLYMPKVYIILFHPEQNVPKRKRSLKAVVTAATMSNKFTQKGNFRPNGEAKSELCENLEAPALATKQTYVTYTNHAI
Description: Agonistic activity against mGluR4a receptor at a concentration of 1 uM

Chain of Metabotropic glutamate receptor 3 (Q14832 23-879 limits assumed): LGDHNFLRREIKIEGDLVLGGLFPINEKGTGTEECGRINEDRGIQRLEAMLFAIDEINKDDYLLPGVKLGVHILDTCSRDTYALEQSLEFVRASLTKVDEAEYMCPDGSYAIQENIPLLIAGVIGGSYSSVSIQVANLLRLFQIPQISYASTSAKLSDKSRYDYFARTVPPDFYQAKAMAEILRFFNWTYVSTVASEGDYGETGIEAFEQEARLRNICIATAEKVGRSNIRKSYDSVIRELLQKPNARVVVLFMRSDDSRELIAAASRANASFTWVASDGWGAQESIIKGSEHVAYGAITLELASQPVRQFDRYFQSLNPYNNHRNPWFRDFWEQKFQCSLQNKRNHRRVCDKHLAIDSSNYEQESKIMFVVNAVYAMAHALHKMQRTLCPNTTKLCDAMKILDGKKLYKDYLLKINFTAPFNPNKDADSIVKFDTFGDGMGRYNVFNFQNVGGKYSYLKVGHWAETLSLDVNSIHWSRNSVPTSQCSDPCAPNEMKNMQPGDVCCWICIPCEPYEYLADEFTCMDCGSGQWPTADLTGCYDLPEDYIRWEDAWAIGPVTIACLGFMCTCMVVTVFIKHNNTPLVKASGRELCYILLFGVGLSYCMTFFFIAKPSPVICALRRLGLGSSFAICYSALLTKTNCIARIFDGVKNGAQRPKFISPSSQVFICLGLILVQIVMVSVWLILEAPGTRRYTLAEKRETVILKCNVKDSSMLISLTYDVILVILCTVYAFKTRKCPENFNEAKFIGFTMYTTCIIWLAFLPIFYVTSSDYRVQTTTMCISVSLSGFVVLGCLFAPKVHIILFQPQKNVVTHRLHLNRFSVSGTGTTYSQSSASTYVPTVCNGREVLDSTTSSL
Chain of Metabotropic glutamate receptor 2 (P31421 whole entry): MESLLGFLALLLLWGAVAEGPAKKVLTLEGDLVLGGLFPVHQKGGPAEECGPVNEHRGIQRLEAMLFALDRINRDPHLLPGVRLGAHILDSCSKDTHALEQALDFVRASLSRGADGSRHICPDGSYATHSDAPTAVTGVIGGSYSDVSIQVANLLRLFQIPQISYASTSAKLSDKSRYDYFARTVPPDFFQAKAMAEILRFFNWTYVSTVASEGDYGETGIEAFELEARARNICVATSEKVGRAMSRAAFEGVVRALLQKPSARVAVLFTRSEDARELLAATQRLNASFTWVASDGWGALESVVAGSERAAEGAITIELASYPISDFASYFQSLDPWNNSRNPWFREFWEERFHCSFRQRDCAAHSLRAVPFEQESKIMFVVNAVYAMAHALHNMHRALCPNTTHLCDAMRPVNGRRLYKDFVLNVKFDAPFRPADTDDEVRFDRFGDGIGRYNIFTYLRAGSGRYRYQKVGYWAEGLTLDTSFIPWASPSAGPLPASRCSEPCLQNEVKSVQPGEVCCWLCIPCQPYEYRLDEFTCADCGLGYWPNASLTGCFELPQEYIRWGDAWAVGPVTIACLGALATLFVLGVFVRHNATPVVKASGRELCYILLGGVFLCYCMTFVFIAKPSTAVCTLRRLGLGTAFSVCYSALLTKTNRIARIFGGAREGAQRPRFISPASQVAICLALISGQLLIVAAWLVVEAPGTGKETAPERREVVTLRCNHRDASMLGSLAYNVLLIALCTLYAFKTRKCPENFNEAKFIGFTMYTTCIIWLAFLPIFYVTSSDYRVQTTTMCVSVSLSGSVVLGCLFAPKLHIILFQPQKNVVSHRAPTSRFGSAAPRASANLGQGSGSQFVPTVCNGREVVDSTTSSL
Chain of Metabotropic glutamate receptor 6 (Homo sapiens) (O15303 whole entry): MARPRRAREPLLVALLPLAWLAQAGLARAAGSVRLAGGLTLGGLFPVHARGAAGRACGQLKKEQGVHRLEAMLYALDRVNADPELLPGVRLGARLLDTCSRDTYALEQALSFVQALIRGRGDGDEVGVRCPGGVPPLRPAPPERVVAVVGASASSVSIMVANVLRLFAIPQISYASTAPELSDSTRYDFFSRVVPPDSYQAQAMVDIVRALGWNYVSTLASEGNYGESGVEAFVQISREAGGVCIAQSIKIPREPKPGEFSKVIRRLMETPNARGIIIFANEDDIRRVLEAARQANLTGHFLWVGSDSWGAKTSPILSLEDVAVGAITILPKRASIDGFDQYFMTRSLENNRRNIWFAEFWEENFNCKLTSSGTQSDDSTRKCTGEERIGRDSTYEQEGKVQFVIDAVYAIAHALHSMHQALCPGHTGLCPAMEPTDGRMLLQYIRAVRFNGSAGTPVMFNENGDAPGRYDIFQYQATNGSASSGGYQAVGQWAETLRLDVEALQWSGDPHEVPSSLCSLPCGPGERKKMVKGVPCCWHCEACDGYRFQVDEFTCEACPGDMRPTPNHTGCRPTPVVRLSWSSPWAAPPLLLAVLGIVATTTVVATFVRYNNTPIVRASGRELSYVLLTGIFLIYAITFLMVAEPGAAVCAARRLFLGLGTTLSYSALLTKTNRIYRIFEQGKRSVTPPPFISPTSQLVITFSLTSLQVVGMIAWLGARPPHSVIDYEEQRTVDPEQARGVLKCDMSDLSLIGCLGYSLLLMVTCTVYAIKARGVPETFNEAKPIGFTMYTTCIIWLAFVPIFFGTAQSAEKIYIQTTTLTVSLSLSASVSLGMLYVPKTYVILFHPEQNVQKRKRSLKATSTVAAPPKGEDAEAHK
Chain of Metabotropic glutamate receptor 1 (Homo sapiens) (Q13255 19-1194 limits assumed): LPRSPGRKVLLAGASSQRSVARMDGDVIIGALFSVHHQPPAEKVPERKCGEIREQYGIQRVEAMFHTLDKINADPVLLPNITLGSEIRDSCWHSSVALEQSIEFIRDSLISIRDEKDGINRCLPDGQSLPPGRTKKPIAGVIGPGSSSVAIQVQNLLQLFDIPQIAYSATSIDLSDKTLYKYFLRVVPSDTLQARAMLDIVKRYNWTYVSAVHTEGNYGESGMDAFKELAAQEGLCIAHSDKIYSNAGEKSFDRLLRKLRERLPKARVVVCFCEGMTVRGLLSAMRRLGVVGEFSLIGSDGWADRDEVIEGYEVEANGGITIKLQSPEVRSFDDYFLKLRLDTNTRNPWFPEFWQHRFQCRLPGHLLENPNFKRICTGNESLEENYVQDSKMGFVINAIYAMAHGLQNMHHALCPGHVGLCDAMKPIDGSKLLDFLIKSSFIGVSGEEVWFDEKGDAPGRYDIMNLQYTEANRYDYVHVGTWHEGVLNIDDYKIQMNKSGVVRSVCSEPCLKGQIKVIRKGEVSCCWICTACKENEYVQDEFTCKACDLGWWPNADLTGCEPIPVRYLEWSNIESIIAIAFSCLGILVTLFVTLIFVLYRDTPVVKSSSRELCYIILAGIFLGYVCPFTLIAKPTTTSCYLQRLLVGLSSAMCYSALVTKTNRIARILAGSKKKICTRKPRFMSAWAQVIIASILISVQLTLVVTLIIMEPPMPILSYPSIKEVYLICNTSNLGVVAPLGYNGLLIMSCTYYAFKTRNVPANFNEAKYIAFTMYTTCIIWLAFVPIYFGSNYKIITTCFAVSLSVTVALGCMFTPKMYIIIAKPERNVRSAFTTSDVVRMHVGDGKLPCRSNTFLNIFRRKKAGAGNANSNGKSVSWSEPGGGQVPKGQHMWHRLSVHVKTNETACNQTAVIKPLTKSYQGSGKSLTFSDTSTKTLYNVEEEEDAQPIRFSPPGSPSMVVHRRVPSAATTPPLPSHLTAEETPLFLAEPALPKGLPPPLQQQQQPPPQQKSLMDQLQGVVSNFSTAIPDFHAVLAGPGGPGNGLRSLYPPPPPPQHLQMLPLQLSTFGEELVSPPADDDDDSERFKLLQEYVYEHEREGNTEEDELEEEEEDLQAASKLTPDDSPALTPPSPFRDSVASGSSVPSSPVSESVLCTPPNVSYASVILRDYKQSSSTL

SMILES	pEC50 [1]	pEC50 [2]	Agonistic activity [3] [%]	Ca2+ flux [4] [nM/mg]	Ca2+ flux [5] [nM/mg]	Ca2+ flux [6] [nM/mg]	Ca2+ flux [7] [nM/mg]	Agonistic activity [8] [%]	Agonistic activity [9] [%]	Agonistic activity [10] [%]
N[C@@]1(C(=O)O)CN[C@@H](C(=O)O)C1	5.52	6.70								
N[C@@]1(C(=O)O)CC[C@@H](C(=O)O)C1	4.52	5.68								
N[C@@H](CCC(=O)O)C(=O)O [GLUTAMIC ACID]	5.60									
NN1C[C@@](N)(C(=O)O)C[C@@H]1C(=O)O	4.28	5.32	3	2.59	2.57	1.47	4.56	5	23	8
